{
  "source": "patent US20240197709A1",
  "about": "“POTENTIATING THE TUMOR-SELECTIVE EFFECTS OF NQO1-BIOACTIVATABLE AGENT BY USE OF CMET INHIBITOR” (The Trustees of Indiana University, priority 2022, published 2024)",
  "key": {"Capan2 shMET": {"tested_on": "Capan2 shMET", "test": "long-term survival (DNA assay), Capan2 shSCR versus shMET", "type": "cell-based", "from_the_text": "FIG. 1-1R. Graph showing relative long-term survival in isogenic Capan2 shSCR versus shMET cell lines using the DNA assay.\nDicoumarol (DIC) is a well-established NQO1 inhibitor (Asher, et al., Biochemistry 2006, 45(20), 6372-8; Motea, et al., Clin Cancer Res 2019, 25(8), 2601-2609; Huang, et al., Cancer Cell 2016, 30(6), 940-952)."}, "pY1234-cMET / PARP1": {"tested_on": "pY1234-cMET / PARP1", "test": "PARP1 immunoprecipitation (co-IP)", "type": "cell-based", "settings": "A549, β-lap 3 and 6 μM for 2 h", "from_the_text": "Next, we sought to investigate the mechanistic role of cMET in promoting resistance to ROS-induced DNA lesions caused by the futile redox cycling of β-lap with NQO1. […] In response to H2O2 stimulation, cMET can translocate into the nucleus where it interacts with PARP1 for activation to enhance the repair of ROS-induced DNA damage. […] Next we performed PARP1 immunoprecipitation studies to determine whether it associates with activated cMET in the nucleus following treatment with β-lap at increasing doses."}, "[1]": {"tested_on": "Vimentin protein expression in A549 shSCR", "test": "Western blot of Vimentin, A549 shSCR versus shMET", "type": "cell-based", "settings": "sub-lethal β-lap 2 h, further reduced in shMET", "protocol": "FIG. 4-1C. Western blot analysis of Vimentin protein expression in A549 shSCR versus shMET treated with vehicle control or non-lethal β-lap doses for 2 h.\nOverexpression of cMET in many cancers, including NSCLC and PDAC, is known to enhance cancer cell mobility, migration, and invasion (Spina, et al., Biomedicines 2015, 3(1), 71-88). […] Thus, we investigated whether treatment with non-lethal β-lap in combination with inhibition of cMET activity (i.e., via pharmacological or genetic interventions) can target and mitigate cancer invasion or migration using Boyden chamber (Chen, Methods Mol Biol 2005, 294, 15-22; Eccles, et al., Biotechnol Annu Rev 2005, 11, 391-421) and wound-healing (Liang, et al., Nat Protoc 2007, 2(2), 329-33) assays. […] Likewise, we noted a decrease in the expression of a transcription factor that promotes invasion and migration, Twist (Khan et al., Tumour Biol 2013, 34(5), 2497-506), with the combination treatment relative to vehicle control (FIG. 4E, G). Addition of DIC to the combination treatment reverted Twist and E-cadherin protein expression to almost similar level as vehicle-treated control. shRNA mediated knockdown of cMET expression in A549 and Capan2 decreased their migratory and invasive phenotypes relative to their corresponding shSCR controls, which is consistent with the canonical role of cMET in invasive cancers. […]"}, "A549 shSCR 3D spheroids": {"tested_on": "A549 shSCR 3D spheroids", "test": "3D spheroid growth and viability, A549 shSCR", "type": "cell-based", "settings": "β-lap 3 μM", "protocol": "FIG. 5A. Representative brightfield images of A549 shSCR versus shMET 3D spheroids treated with vehicle control (0.1% DMSO) or β-lap (3 μM, which is sub-lethal in A549 NSCLC cells in 2D long-term survival assays) imaged at indicated times to monitor microtumor spheroid growth. Scale bar=250 μm.\nFIG. 5B. Graphical comparison of 3D spheroid (microtumor) growth of A549 shSCR vs shMET at indicated treatments over time relative to initial 3D spheroid area (day 1).\nFIG. 5C. Quantification of 3D spheroid viability at day 10 (in panel A) using CellTiter-Glo® 3D Cell Viability Assay.\nStudies have shown that drug sensitivity of cancer cells cultured in three-dimension (3D) more accurately predicts their sensitivity in vivo.30-31 Thus, we utilized 3D tumor spheroid growth of our isogenic A549 shSCR or shMET cancer cell lines to closely recapitulate the cell-cell interactions of human tumors32-33. After three days of spheroid formation, A549 shSCR and shMET microtumors were exposed to vehicle control (0.1% DMSO) or β-lap (3 μM, sub-lethal concentration in 2D culture for A549 parental line), and imaged over time for 3D spheroid tumor growth for comparison. […] Additionally, the viability of A549 shSCR versus shMET 3D spheroids treated with vehicle control and β-lap at day 10 was determined using CellTiter-Glo® 3D Viability Assay (FIG. 5C) for comparison. […]"}, "cancers with NQO1": {"tested_on": "cancers with NQO1", "settings": "average, most cancers with NQO1; cited from earlier work"}, "[2]": {"settings": "HPBCD formulation; cited from earlier work"}},
  "data": [
    {"smiles": "CC1(C)CCC2=C(O1)c1ccccc1C(=O)C2=O", "note": "[β-lap, β-Lapachone]", "values": [
      {"measurement": "sensitivity to β-lap after stable knockdown of cMET", "setting": "Capan2 shMET", "value": "enhanced Capan2 sensitivity"},
      {"measurement": "pY1234-cMET co-immunoprecipitated with PARP1", "setting": "pY1234-cMET / PARP1", "value": "increasing levels of pY1234-cMET with PARP1"},
      {"measurement": "Vimentin expression", "setting": "[1]", "value": "decreased Vimentin expression"},
      {"measurement": "3D spheroid (microtumor) growth over time", "setting": "A549 shSCR 3D spheroids", "value": "relatively negligible microtumor lethality"},
      {"measurement": "3D spheroid viability at day 10 (CellTiter-Glo 3D)", "setting": "A549 shSCR 3D spheroids", "value": "no significant lethality"},
      {"measurement": "LD50", "setting": "cancers with NQO1", "value": "3.0 to 6.0", "unit": "µM"},
      {"measurement": "maximum-tolerated dose (MTD)", "setting": "[2]", "value": "about 25 mg/kg"}
    ]}
  ]
}
